Entries after “also recorded” stand apart in the source; their conditions may differ. Read-outs that look alike come from different tables or passages of the source. *1 amine or outer side, *2 acyl side, *3 side chain or, on linkers, in order; H or OH if unused. Where a SMILES comes first, the peptide text is derived from it. The star is where a group is joined. Glutaryl = O=C(CCCC(=O)[*:2])[*:1]; pNA = O=[N+]([O-])c1ccc(N*)cc1; Cbz = O=C(OCc1ccccc1)*
Key:
[1] = system: monoclonal receptor NPN 43C9; assay: Amide hydrolysis by monoclonal receptor NPN 43C9, kinetics and inhibition; type: biochemical, mouse; conditions: for nature of inhibition / Ki: substrate Compound 28; for Km: printed figure = km × 10^6; for Vmax: figure = Vmax × 10^9; for kcat: printed figure = kcat × 10^4
Procedure: FIG. 6 is a graph showing a Lineweaver-Burk plot for amide hydrolysis of reactant ligand Compound 28 by monoclonal receptor NPN 43C9 present at 10 uM. Rates were determined as discussed hereinafter. The ordinate is in units of 1/initial velocity (1/v) in units of minutes/moles (M^-1 min) from zero through 10^7. The abscissa is in units of the reciprocal of the concentration of Compound 28 [1/(28)] in micromoles (uM^-1).
FIG. 7 is a graph showing plots of steady-state velocity (V×10^-9M^-1 min) as a function of total NPN 43C9 monoclonal receptor concentration (At ×10^-6 M) in the absence (I=O) and presence (I=44,=88 and =131) of different concentrations of reversible tight-binding inhibitor (Compound 24i). The indicia adjacent to each curve (I=O, I=44, I=88, and I=131) represent the total micromolar (uM) concentrations of that inhibitor. Each data set was obtained at a constant reactant ligand concentration (1600 uM). […] The data obtained were thereafter fit to an equation shown and discussed hereinafter.
FIG. 8 is a graph showing three further Lineweaver-Burk plots for the hydrolysis of Compound 28 by receptor NPN 43C9 present at 8 uM. Initial velocities were calculated as discussed hereinafter, whereas the ordinate and abscissa are as discussed for FIG. 6, albeit the values of the ordinate are from zero to 3×10^7 M^-1 min. In those plots, the uppermost plot ( ) was prepared from data obtained in the presence of 2000 uM Compound 29 as inhibitor, the middle plot ( ) was obtained in the presence of 1000 uM Compound 29 as inhibitor, and the lowest plot ( ) was obtained in the absence of inhibitor.
It was therefore stored at 4 degrees C in buffer containing 150 mM sodium chloride that was removed immediately prior to use by dialysis against 50 mM CHES, 80 uM NaCl at a pH value of 9.0, and at a temperature of 22 degrees C. This receptor was utilized at concentrations of 10 and 8 uM (as an average value determined from a BCA assay and O. D. 280 nm, using a molecular weight of 160,000 daltons for IgG).
Kinetic parameters for hydrolysis of reactant ligand Compound 28 were determined by measuring the initial linear absorbance change at 404 nm, release of p-nitroaniline. Monoclonal receptor concentrations utilized were 10 and 8 uM, as noted previously. Reactions were initiated by admixture of varying aliquots of a 50 or 100 mM stock solution of Compound 28 in DMF, to provide reactant ligand substrate concentrations of 100-1600 uM. Further studies were carried out using a mixed organic solvent containing dimethyl sulfoxide (DMSO) and acetonitrile (CH3 CN) to dissolve the ligand. In those studies, a final concentration of 5 percent (v/v) of organic solvent was utilized with DMSO comprising 0.2-2.4 volume percent of the final concentration and CH3 CN comprising the remainder of the organic solvent.
Transacylation reactions utilizing an amide reactant ligand as substrate have been studied with Compound 28 as the reactant ligand. In these studies, forty-four hybridomas were prepared that secreted forty-four monoclonal receptors that bound to a conjugate of the immunizing hapten and BSA as carrier protein. Of those forty-four receptors, two appeared to catalyze the hydrolysis reaction of Compound 28. One of those two receptors, NPN 43C9, was selected for further study, as is discussed below.
The initial rates of hydrolysis measured as a function of reactant ligand (Compound 28) concentration followed Michaelis-Menten kinetics.
*Parameters in the upper horizontal row were obtained in the presence of
DMF as a Compound 28solubilizing solvent, whereas parameters in the lower
horizontal row were detained in the presence of DMSO/CH3 CN as
Compound 28solubilizing solvent.
To establish the specificity of monoclonal receptor NPN 43C9, the rates of hydrolysis of potential reactant ligands modified in their acyl or aniline portions were studied. […]

[2] = system: monoclonal receptor P3 6D4; assay: Stoichiometric transacylation reaction of monoclonal receptor P3 6D4 with coumarin ester Compound 5 (fluorescence) and its inhibition/inactivation; type: biochemical, mouse
Procedure: A Perkin-Elmer LS-5 fluorescence spectrometer was operated at a fixed wavelength, using 355 nanometers (nm) for excitation and measuring the emission at 455 nm. A stock solution of the coumarin ester 5 was prepared in dioxane and was diluted to the desired concentrations in Tris-HCl (50 mM, pH 7) or sodium phosphate (50 mM, pH 4-9).
Reactions were run at 23 degrees C and were initiated by the addition of an aliquot of antibody solution (1 mg/ml) to substrate solutions to provide a final protein concentration of 100 nM. Final fluorescence values were determined by hydrolysis of the substrate with pig liver esterase. The observed reaction rate was corrected for spontaneous hydrolysis. Reaction kinetics were studied by measuring initial rates under pseudo-first order conditions. Active protein concentration was extrapolated from fluorescence values at the end of the reaction. The kinetic parameters were obtained by fitting the data to a hyperbolic curve and from double reciprocal plots. Inhibition constants were determined from the Lineweaver-Burk plot data with at least five inhibitor concentrations. All the data were studied by a least squares analysis.
Antibody preparations were inactivated without introducing fluorescent products by the addition of the activated ester (Compound 8) in dioxane to a solution of the IgG (5 mg/ml) in Tris-HCl (50 mM, pH 6.5) at a ratio of 5 moles of the ester (Compound 8) per mole IgG.
Protein modification was performed in an analogous manner, by the addition of a dioxane solution of the reagent at a known concentration to the antibody. The solution was incubated for 30 minutes before filtration through Sephadex G-25. The activity remaining was compared to control samples. Aliquots of IgG (5 mg/ml) inactivated with the ester (Compound 8) were diluted with four volumes of phosphate buffer (50 mM, pH 4-9, at intervals of 1 pH unit). Any pH change was recorded, and the sample was stored at 4 degrees C for 24 hours.
Initially, the ester was used at a concentration that was about four-fold greater than that of the protein, and the mixture was incubated at pH 7.2 for 10 minutes. Any change in fluorescence above background was noted.
The termination of the reaction is noted by the return of the rate of fluorescence increase to the background level.

[3] = DMF as Compound 28-solubilizing solvent
[4] = DMSO/CH3CN as Compound 28-solubilizing solvent

## O=C(O)CCCC(=O)Nc1ccc(CC(=O)Nc2cccc([N+](=O)[O-])c2)cc1 [Compound 29]
[1]
  substrate acceptance by NPN 43C9: lack of receptor-assisted hydrolysis
  nature of inhibition: inhibitor
[1]; listed as Compound 28 with m-nitroaniline for p-nitroaniline
  substrate acceptance by NPN 43C9: non-substrates

## O=C(O)CN(CCN(CC(=O)O)CC(=O)O)CC(=O)O [EDTA, reference compound]
[2]
  effect of additive on antibody-enhanced esterolysis of Compound 5: failure of added EDTA to affect the reaction

## CC(=O)N[C@@H](CC(N)=O)C(=O)Nc1ccc([N+](=O)[O-])cc1 [acetyl-L-asparagine p-nitroanilide, reference compound]
[1]
  substrate acceptance by NPN 43C9: not reactant ligand substrates

## O=C(Cc1ccc(NC(=O)C(F)(F)F)cc1)ON1C(=O)CCC1=O [Compound 6]
[2]
  inactivation of receptor: specifically combine with the antibodies to produce an inactive product

## N=C(N)NCCCC(NC(=O)c1ccccc1)C(=O)Nc1ccc([N+](=O)[O-])cc1 (racemic) [reference compound]
[1]
  substrate acceptance by NPN 43C9: not reactant ligand substrates

## O=C(O)CCCC(=O)N[C@@H](Cc1ccccc1)C(=O)Nc1ccc([N+](=O)[O-])cc1 [N-glutaryl-L-phenylalanine p-nitroanilide, reference compound]
[1]
  substrate acceptance by NPN 43C9: not reactant ligand substrates

## O=C(N[C@@H](Cc1ccc(O)cc1)C(=O)Nc1ccc([N+](=O)[O-])cc1)c1ccccc1 [N-benzoyl-L-tryrosine p-nitroanilide, reference compound]
[1]
  substrate acceptance by NPN 43C9: not reactant ligand substrates

## N[C@@H](CSCc1ccccc1)C(=O)Nc1ccc([N+](=O)[O-])cc1 [S-benzyl-L-cysteine p-nitroanilide, reference compound]
[1]
  substrate acceptance by NPN 43C9: not reactant ligand substrates

## CC(C)C[C@H](NC(=O)[C@H](CCC(=O)O)NC(=O)CCCC(=O)O)C(=O)Nc1ccc([N+](=O)[O-])cc1 [glutaryl-glutamyl-L-leucine p-nitroanilide, reference compound] (Glutaryl-Glu-Leu-pNA)
[1]
  substrate acceptance by NPN 43C9: not reactant ligand substrates

## CC(C)C[C@H](N)C(=O)Nc1ccc([N+](=O)[O-])cc1 [L-leucine p-nitroanilide, reference compound]
[1]
  substrate acceptance by NPN 43C9: not reactant ligand substrates

## O=C(Nc1ccc([N+](=O)[O-])cc1)[C@@H]1CCCN1 [L-proline p-nitroanilide, reference compound]
[1]
  substrate acceptance by NPN 43C9: not reactant ligand substrates

## CC(C)C[C@H](NC(=O)CNC(=O)CNC(=O)OCc1ccccc1)C(=O)Nc1ccc([N+](=O)[O-])cc1 [N-CBZ-glycyl-glycyl-L-leucine p-nitroanilide, reference compound] (Cbz-Gly-Gly-Leu-pNA)
[1]
  substrate acceptance by NPN 43C9: not reactant ligand substrates

## O=C(O)CCCC(=O)Nc1ccc(CC(=O)Nc2ccccc2[N+](=O)[O-])cc1
[1]
  substrate acceptance by NPN 43C9: non-substrates

## CC(=O)Nc1ccc(CP(=O)(O)Nc2ccc([N+](=O)[O-])cc2)cc1 [Compound 24i]
[1]; detected with inhibitor Compound 24i
  calculated maximum number of enzyme binding sites: 5.1±0.9
[1]; infinite reactant ligand concentration, inhibitor binding to receptor in a complex, read-out: inhibition constant kii
  Ki: 2.5 µM
[1]; low substrate concentration, inhibitor binding to free receptor, read-out: inhibition constant kis
  Ki: 10 µM
[1]
  nature of inhibition: Tight binding inhibition; also recorded: mixed inhibitor

## O=C(O)CCCC(=O)Nc1ccc(CC(=O)Nc2ccc([N+](=O)[O-])cc2)cc1 [Compound 28]
[1]
  rate acceleration / rate enhancement relative to uncatalyzed reaction: 10^5
  substrate acceptance by NPN 43C9: substrate
[1]; [3]
  kcat/kuncat: 1.5 × 10^5
  Vmax: 8.3 nM/s
  kcat: 0.00083 s⁻¹
[1]; DMF as Compound 28-solubilizing solvent, pH 9.0
  Km: 370 µM
[1]; [4]
  kcat/kuncat: 2.5 × 10^5
  Vmax: 7 nM/s
  kcat: 0.00133 s⁻¹
  Km: 562 µM
[1]; difference between binding of inhibitor (Ki) and Compound 28 (Km)
  available transition state binding energy ΔΔG: -2.2 kcal/mol

## CC(=O)Nc1ccc(CP(=O)(O)Nc2ccc([N+](=O)[O-])cc2)cc1 [inhibitor]
[1]
  nature of inhibition: reversible

## O=C(O)CCCC(=O)Nc1ccc(CC(=O)Oc2ccc([N+](=O)[O-])cc2)cc1
[1]
  substrate acceptance by NPN 43C9: catalytically hydrolyzed

## NCCCC[C@H](N)C(=O)Nc1ccc([N+](=O)[O-])cc1 [L-lysine p-nitroanilide, reference compound]
[1]
  substrate acceptance by NPN 43C9: not reactant ligand substrates

## CC(C)[C@H](N)C(=O)Nc1ccc([N+](=O)[O-])cc1 [L-valine p-nitroanilide, reference compound]
[1]
  substrate acceptance by NPN 43C9: not reactant ligand substrates

## CC(=O)Nc1ccc(CC(=O)Oc2ccc3ccc(=O)oc3c2)cc1 [reference compound]
[2]
  stoichiometric antibody reaction (release of alcohol): not detected

## zinc [reference compound]
[2]; up to 100 micromolar added zinc and picolinic acid, EDTA concentration not given
  effect of additive on antibody-enhanced esterolysis of Compound 5: No effect

## O=C(O)Cc1ccc(NC(=O)C(F)(F)F)cc1 [carboxylate product of ester hydrolysis]
[2]; summary, kinetic parameters at low pH values, read-out: Ki (inhibition of antibody esterolysis)
  Ki: 7 µM

## N=C(N)NCCC[C@H](NC(=O)OCc1ccccc1)C(=O)Nc1ccc([N+](=O)[O-])cc1 [N-alpha-CBZ-L-arginine p-nitroanilide, reference compound]
[1]
  substrate acceptance by NPN 43C9: not reactant ligand substrates
